In patent US20110039879A1, “METHODS FOR INCREASING WHITE BLOOD CELLS” (FibroGen ,Inc., priority 2007, published 2011):

Tests used:
Type in all cases: in vivo, Swiss-Webster mice
neutrophils [1] = assay: Neutrophils by complete blood count, once daily dosing 3 or 4 days; settings: mice, oral gavage, blood 6 h after final dosing, CBC
Method: (§1) To examine the effect of compounds and methods of the present invention on increasing white blood cells, the following studies were performed. In one series of experiments, male Swiss-Webster mice were administered various compounds of the present invention via oral gavage using a ball-tipped gavage needle. Animals treated by oral gavage received a 10 ml/kg volume of either 0.5% carboxymethyl cellulose (CMC) with 0.1% Polysorbate 80 (vehicle control) or various doses (10-100 mg/kg) of a compound of the present invention in 0.5% CMC with 0.1% Polysorbate 80. Animals were dosed once daily for 3 or 4 days. Six hours after the final dosing, 200 μl blood samples were collected and total white blood cell, neutrophil, and lymphocyte levels were measured by complete blood count (CBC) using a CellDyn cell analyzer (Abbott Laboratories).

[2] = tested on: hematopoietic progenitor cells (HPCs); assay: Hematopoietic progenitor cells (Sca-1+/c-Kit+) in blood by FACS analysis; settings: mice, oral gavage, blood 6 h after final dosing
Method: (§2) To examine the effect of compounds and methods of the present invention on hematopoietic progenitor cell (HPC) and neutrophil levels, the following studies were performed. Male Swiss-Webster mice were administered various compounds of the present invention via oral gavage using a ball-tipped gavage needle. Animals treated by oral gavage received a 10 ml/kg volume of either 0.5% carboxymethyl cellulose (CMC) with 0.1% Polysorbate 80 (vehicle control) or various doses (10-100 mg/kg) of a compound of the present invention in 0.5% CMC with 0.1% Polysorbate 80. Animals were dosed once daily for 3 or 4 days.
(§3) Six hours after the final dosing, 200 μl blood samples were collected for detection of hematopoietic progenitor cells (HPCs) and neutrophils by FACS analysis using methods previously described. (See, e.g., Wang et al. (1997) J Leukoc Biol 62 503-9 and Legasse et al. (1996) J Immunol Methods 197:139-50.) Briefly, leukocytes and progenitor cells were isolated from whole blood samples following erythrocyte depletion using red blood cell lysis buffer (eBioscience) according to the manufacturer's instructions. The remaining cells were incubated for one hour with monoclonal antibodies directed against mouse Sca-1 and mouse c-Kit (cell surface markers for HPCs, BD Pharmingen), or mouse Mac-1 and mouse Gr-1 (cell surface markers for murine neutrophils, BD Pharmingen). Following incubation with the monoclonal antibodies, the cells were washed three times with sort buffer (PBS, 1% fetal bovine serum) and resuspended in sort buffer containing 50 μg/ml of propidium iodide. Samples were then analyzed for the presence and quantitation of HPCs and neutrophils by flow cytometry (FACS Calibur, Becton Dickinson). The cytometer was set to acquire 10 000 events. Two or three blood samples obtained from each animal were analyzed and the average recorded. Hematopoietic progenitor cells were determined as double positive Sca-1+/c-Kit+ cells and neutrophils were determined as double positive Mac-1+/Gr-1+ cells.

lymphocytes = assay: Lymphocytes by complete blood count, once daily dosing 3 or 4 days; settings: mice, oral gavage, blood 6 h after final dosing, CBC
Method: as §1

[3] = tested on: neutrophils in bone marrow; assay: Neutrophils in bone marrow by FACS analysis; settings: mice, oral gavage, tibia bone marrow 6 h after final dosing
Method: as §3
(§4) To examine the effect of compounds and methods of the present invention on hematopoietic progenitor cell (HPC) and neutrophil levels in bone marrow, the following studies were performed. Male Swiss-Webster mice were administered various compounds of the present invention via oral gavage using a ball-tipped gavage needle. Animals treated by oral gavage received a 10 ml/kg volume of either 0.5% carboxymethyl cellulose (CMC) with 0.1% Polysorbate 80 (vehicle control) or various doses (10-100 mg/kg) of a compound of the present invention in 0.5% CMC with 0.1% Polysorbate 80. Animals were dosed once daily for 3 or 4 days. Six hours after the final dosing, bone marrow samples were taken from one tibia of each animal and suspended in buffer (PBS with 1% fetal bovine serum). Bone marrow suspensions were then filtered through nylon filters to remove stromal cells. Following filtration, the remaining cells were counted manually using a hemocytometer. Detection and quantitation of HPCs and neutrophils were performed by FACS analysis as described above in Example 1.

neutrophils [4] = assay: Neutrophils (Mac-1+/Gr-1+) in blood by FACS analysis; settings: mice, oral gavage, blood 6 h after final dosing
Method: as §2, §3

[5] = tested on: total white blood cell (WBC); assay: Total white blood cells by complete blood count, once daily dosing 3 or 4 days; settings: mice, oral gavage, blood 6 h after final dosing
Method: as §1

[6] = tested on: hematopoietic progenitor cells (HPCs) in bone marrow; assay: Hematopoietic progenitor cells in bone marrow by FACS analysis; settings: mice, oral gavage, tibia bone marrow 6 h after final dosing
Method: as §3, §4

[7] = 100 mg/kg once daily for 4 days

Cc1cccc(C)c1Oc1ccc2c(C#N)nc(C(=O)NCC(=O)O)c(O)c2c1 [Compound C]
Neutrophils (neutrophils [1]; 20 mg/kg once daily for 3 days): 0.97 10^3 cells/μl | Neutrophils % Increase Over Control (neutrophils [1]; 20 mg/kg once daily for 3 days): 142% | Neutrophils (neutrophils [1]; 20 mg/kg once daily for 4 days): 0.77 10^3 cells/μl | Neutrophils % Increase Over Control (neutrophils [1]; 20 mg/kg once daily for 4 days): −4% | Neutrophils (neutrophils [1]; 60 mg/kg once daily for 3 days): 1.73 10^3 cells/μl | Neutrophils % Increase Over Control (neutrophils [1]; 60 mg/kg once daily for 3 days): 333% | Neutrophils (neutrophils [1]; 60 mg/kg once daily for 4 days): 1.37 10^3 cells/μl | Neutrophils % Increase Over Control (neutrophils [1]; 60 mg/kg once daily for 4 days): 71% | Blood HPCs ([2]; 20 mg/kg once daily for 3 days): 403 cells/μl | Blood HPCs Fold Increase Over Control ([2]; 20 mg/kg once daily for 3 days): 2.7 fold | Percent Blood HPCs ([2]; 20 mg/kg once daily for 3 days): 3.4 % gated cells | Percent Blood HPCs Fold Increase Over Control ([2]; 20 mg/kg once daily for 3 days): 1.6 fold | Blood HPCs ([2]; 20 mg/kg once daily for 4 days): 155 cells/μl | Blood HPCs Fold Increase Over Control ([2]; 20 mg/kg once daily for 4 days): 1.9 fold | Percent Blood HPCs ([2]; 20 mg/kg once daily for 4 days): 0.9 % gated cells | Percent Blood HPCs Fold Increase Over Control ([2]; 20 mg/kg once daily for 4 days): 0.7 fold | Blood HPCs ([2]; 60 mg/kg once daily for 3 days): 486 cells/μl | Blood HPCs Fold Increase Over Control ([2]; 60 mg/kg once daily for 3 days): 3.3 fold | Percent Blood HPCs ([2]; 60 mg/kg once daily for 3 days): 3.4 % gated cells | Percent Blood HPCs Fold Increase Over Control ([2]; 60 mg/kg once daily for 3 days): 1.5 fold | Blood HPCs ([2]; 60 mg/kg once daily for 4 days): 336 cells/μl | Blood HPCs Fold Increase Over Control ([2]; 60 mg/kg once daily for 4 days): 4.1 fold | Percent Blood HPCs ([2]; 60 mg/kg once daily for 4 days): 1.4 % gated cells | Percent Blood HPCs Fold Increase Over Control ([2]; 60 mg/kg once daily for 4 days): 1.2 fold | Lymphocytes (lymphocytes; 20 mg/kg once daily for 3 days): 10.63 10^3 cells/μl | Lymphocytes % Increase Over Control (lymphocytes; 20 mg/kg once daily for 3 days): 117% | Lymphocytes (lymphocytes; 20 mg/kg once daily for 4 days): 17.97 10^3 cells/μl | Lymphocytes % Increase Over Control (lymphocytes; 20 mg/kg once daily for 4 days): 192% | Lymphocytes (lymphocytes; 60 mg/kg once daily for 3 days): 12.70 10^3 cells/μl | Lymphocytes % Increase Over Control (lymphocytes; 60 mg/kg once daily for 3 days): 159% | Lymphocytes (lymphocytes; 60 mg/kg once daily for 4 days): 22.77 10^3 cells/μl | Lymphocytes % Increase Over Control (lymphocytes; 60 mg/kg once daily for 4 days): 270% | Percent Bone Marrow Neutrophils ([3]; 20 mg/kg once daily for 3 days): 47.1 % gated cells | Percent Bone Marrow Neutrophils Fold Increase Over Control ([3]; 20 mg/kg once daily for 3 days): 1.2 fold | Percent Bone Marrow Neutrophils ([3]; 60 mg/kg once daily for 3 days): 41.3 % gated cells | Percent Bone Marrow Neutrophils Fold Increase Over Control ([3]; 60 mg/kg once daily for 3 days): 1.0 fold | Blood Neutrophils (neutrophils [4]; 20 mg/kg once daily for 3 days): 1,375 cells/μl | Blood Neutrophils Fold Increase Over Control (neutrophils [4]; 20 mg/kg once daily for 3 days): 2.8 fold | Percent Blood Neutrophils (neutrophils [4]; 20 mg/kg once daily for 3 days): 11.6 % gated cells | Percent Blood Neutrophils Fold Increase Over Control (neutrophils [4]; 20 mg/kg once daily for 3 days): 1.2 fold | Blood Neutrophils (neutrophils [4]; 20 mg/kg once daily for 4 days): 1,067 cells/μl | Blood Neutrophils Fold Increase Over Control (neutrophils [4]; 20 mg/kg once daily for 4 days): 2.0 fold | Percent Blood Neutrophils (neutrophils [4]; 20 mg/kg once daily for 4 days): 15.8 % gated cells | Percent Blood Neutrophils Fold Increase Over Control (neutrophils [4]; 20 mg/kg once daily for 4 days): 1.5 fold | Blood Neutrophils (neutrophils [4]; 60 mg/kg once daily for 3 days): 2,487 cells/μl | Blood Neutrophils Fold Increase Over Control (neutrophils [4]; 60 mg/kg once daily for 3 days): 5.1 fold | Percent Blood Neutrophils (neutrophils [4]; 60 mg/kg once daily for 3 days): 17.6 % gated cells | Percent Blood Neutrophils Fold Increase Over Control (neutrophils [4]; 60 mg/kg once daily for 3 days): 1.8 fold | Blood Neutrophils (neutrophils [4]; 60 mg/kg once daily for 4 days): 2,933 cells/μl | Blood Neutrophils Fold Increase Over Control (neutrophils [4]; 60 mg/kg once daily for 4 days): 5.5 fold | Percent Blood Neutrophils (neutrophils [4]; 60 mg/kg once daily for 4 days): 12.2 % gated cells | Percent Blood Neutrophils Fold Increase Over Control (neutrophils [4]; 60 mg/kg once daily for 4 days): 1.2 fold | Total WBC ([5]; 20 mg/kg once daily for 3 days): 11.80 10^3 cells/μl | Total WBC % Increase Over Control ([5]; 20 mg/kg once daily for 3 days): 117% | Total WBC ([5]; 20 mg/kg once daily for 4 days): 18.83 10^3 cells/μl | Total WBC % Increase Over Control ([5]; 20 mg/kg once daily for 4 days): 167% | Total WBC ([5]; 60 mg/kg once daily for 3 days): 14.50 10^3 cells/μl | Total WBC % Increase Over Control ([5]; 60 mg/kg once daily for 3 days): 166% | Total WBC ([5]; 60 mg/kg once daily for 4 days): 24.33 10^3 cells/μl | Total WBC % Increase Over Control ([5]; 60 mg/kg once daily for 4 days): 245% | Percent Bone Marrow HPCs ([6]; 20 mg/kg once daily for 3 days): 4.9 % gated cells | Percent Bone Marrow HPCs Fold Increase Over Control ([6]; 20 mg/kg once daily for 3 days): 1.5 fold | Percent Bone Marrow HPCs ([6]; 20 mg/kg once daily for 4 days): 1.4 % gated cells | Percent Bone Marrow HPCs Fold Increase Over Control ([6]; 20 mg/kg once daily for 4 days): 1.2 fold | Percent Bone Marrow HPCs ([6]; 60 mg/kg once daily for 3 days): 6.1 % gated cells | Percent Bone Marrow HPCs Fold Increase Over Control ([6]; 60 mg/kg once daily for 3 days): 1.8 fold | Percent Bone Marrow HPCs ([6]; 60 mg/kg once daily for 4 days): 1.8 % gated cells | Percent Bone Marrow HPCs Fold Increase Over Control ([6]; 60 mg/kg once daily for 4 days): 1.5 fold

COc1ccc(Oc2ccc3c(O)c(C(=O)NCC(=O)O)ncc3c2)cc1 [Compound A, {[4-Hydroxy-7-(4-methoxy-phenoxy)-isoquinoline-3-carbonyl]-amino}-acetic acid]
Neutrophils (neutrophils [1]; 60 mg/kg once daily for 3 days): 0.78 10^3 cells/μl | Neutrophils % Increase Over Control (neutrophils [1]; 60 mg/kg once daily for 3 days): 18% | Neutrophils (neutrophils [1]; [7]): 1.22 10^3 cells/μl | Neutrophils % Increase Over Control (neutrophils [1]; [7]): 94% | Blood HPCs ([2]; 60 mg/kg once daily for 3 days): 76 cells/μl | Blood HPCs Fold Increase Over Control ([2]; 60 mg/kg once daily for 3 days): 1.7 fold | Percent Blood HPCs ([2]; 60 mg/kg once daily for 3 days): 0.9 % gated cells | Percent Blood HPCs Fold Increase Over Control ([2]; 60 mg/kg once daily for 3 days): 1.4 fold | Blood HPCs [2, 7]: 125 cells/μl | Blood HPCs Fold Increase Over Control [2, 7]: 7.4 fold | Percent Blood HPCs [2, 7]: 1.3 % gated cells | Percent Blood HPCs Fold Increase Over Control [2, 7]: 4.1 fold | Lymphocytes (lymphocytes; 60 mg/kg once daily for 3 days): 7.82 10^3 cells/μl | Lymphocytes % Increase Over Control (lymphocytes; 60 mg/kg once daily for 3 days): 14% | Lymphocytes (lymphocytes; [7]): 8.30 10^3 cells/μl | Lymphocytes % Increase Over Control (lymphocytes; [7]): 8% | Percent Bone Marrow Neutrophils ([3]; 60 mg/kg once daily for 3 days): 33.4 % gated cells | Percent Bone Marrow Neutrophils Fold Increase Over Control ([3]; 60 mg/kg once daily for 3 days): 1.1 fold | Percent Bone Marrow Neutrophils [3, 7]: 33.7 % gated cells | Percent Bone Marrow Neutrophils Fold Increase Over Control [3, 7]: 1.3 fold | Blood Neutrophils (neutrophils [4]; 60 mg/kg once daily for 3 days): 200 cells/μl | Blood Neutrophils Fold Increase Over Control (neutrophils [4]; 60 mg/kg once daily for 3 days): 2.0 fold | Percent Blood Neutrophils (neutrophils [4]; 60 mg/kg once daily for 3 days): 2.3 % gated cells | Percent Blood Neutrophils Fold Increase Over Control (neutrophils [4]; 60 mg/kg once daily for 3 days): 1.6 fold | Blood Neutrophils (neutrophils [4]; [7]): 1,083 cells/μl | Blood Neutrophils Fold Increase Over Control (neutrophils [4]; [7]): 6.1 fold | Percent Blood Neutrophils (neutrophils [4]; [7]): 11.3 % gated cells | Percent Blood Neutrophils Fold Increase Over Control (neutrophils [4]; [7]): 3.4 fold | Total WBC ([5]; 60 mg/kg once daily for 3 days): 8.66 10^3 cells/μl | Total WBC % Increase Over Control ([5]; 60 mg/kg once daily for 3 days): 12% | Total WBC [5, 7]: 9.62 10^3 cells/μl | Total WBC % Increase Over Control [5, 7]: 14% | Percent Bone Marrow HPCs ([6]; 60 mg/kg once daily for 3 days): 5.1 % gated cells | Percent Bone Marrow HPCs Fold Increase Over Control ([6]; 60 mg/kg once daily for 3 days): 1.3 fold | Percent Bone Marrow HPCs [6, 7]: 6.7 % gated cells | Percent Bone Marrow HPCs Fold Increase Over Control [6, 7]: 1.5 fold
